According to PubChem BioAssay AID1963837 (Molecular Pharmacology Branch, DTP, NCI, 2024):

System: 843126-344-R-J1-PDC complex spheroid viability
Experiment: Anticancer human tumor 843126-344-R-J1-PDC patient-derived melanoma cell line growth inhibition [POLQ]
Settings: for IC50: curve of first compound; for viability, T/C: stronger effect = lower value
How it was run: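 Patient-derived tumour cells were co-cultured with HUVEC and mesenchymal stem cells as multicellular spheroids at 37 °C. They were treated with POLQ inhibitors (novobiocin, ART-558, RP6685) alone or combined with other agents. Top concentrations were at or near clinical Cmax (otherwise 10 microM; SN-38 at 1 microM), decreasing in half-log steps.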

[1] = second compound 0.0316 µM, first compound 0.0316 µM
[2] = second compound 0.0316 µM, first compound 0.1 µM
[3] = second compound 0.0316 µM, first compound 0.316 µM
[4] = second compound 0.0316 µM, first compound 1 µM
[5] = second compound 0.0316 µM, first compound 3.16 µM
[6] = second compound 0.0316 µM, first compound 10 µM
[7] = second compound 0.1 µM, first compound 0.0316 µM
[8] = second compound 0.1 µM, first compound 0.1 µM
[9] = second compound 0.1 µM, first compound 0.316 µM
[10] = second compound 0.1 µM, first compound 1 µM
[11] = second compound 0.1 µM, first compound 3.16 µM
[12] = second compound 0.1 µM, first compound 10 µM
[13] = second compound 0.316 µM, first compound 0.0316 µM
[14] = second compound 0.316 µM, first compound 0.1 µM
[15] = second compound 0.316 µM, first compound 0.316 µM
[16] = second compound 0.316 µM, first compound 1 µM
[17] = second compound 0.316 µM, first compound 3.16 µM
[18] = second compound 0.316 µM, first compound 10 µM
[19] = second compound 1 µM, first compound 0.0316 µM
[20] = second compound 1 µM, first compound 0.1 µM
[21] = second compound 1 µM, first compound 0.316 µM
[22] = second compound 1 µM, first compound 1 µM
[23] = second compound 1 µM, first compound 3.16 µM
[24] = second compound 1 µM, first compound 10 µM
[25] = second compound 3.16 µM, first compound 0.0316 µM
[26] = second compound 3.16 µM, first compound 0.1 µM
[27] = second compound 3.16 µM, first compound 0.316 µM
[28] = second compound 3.16 µM, first compound 1 µM
[29] = second compound 3.16 µM, first compound 3.16 µM
[30] = second compound 3.16 µM, first compound 10 µM
[31] = second compound 10 µM, first compound 0.0316 µM
[32] = second compound 10 µM, first compound 0.1 µM
[33] = second compound 10 µM, first compound 0.316 µM
[34] = second compound 10 µM, first compound 1 µM
[35] = second compound 10 µM, first compound 3.16 µM
[36] = second compound 10 µM, first compound 10 µM
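For viability, T/C in this document: spheroids exposed to drugs for seven days before readout.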

CC(C)n1c(=O)n(C)c2cnc3cc(F)c(-c4ccc(OCCCN5CCCCC5)nc4)cc3c21 + Nc1ccc(C#CCN(C(=O)Cc2ncc(C(F)(F)F)cc2C(F)(F)F)c2ccc(F)cc2)nn1
IC50 (second compound 0.0316 µM): > 10 µM | IC50 (second compound 0.1 µM): > 10 µM | IC50 (second compound 0.316 µM): > 10 µM | IC50 (second compound 1 µM): > 10 µM | IC50 (second compound 3.16 µM): > 10 µM | IC50 (second compound 10 µM): > 10 µM | viability, T/C [1]: 91.9% | viability, T/C [2]: 74% | viability, T/C [3]: 86.2% | viability, T/C [4]: 92.6% | viability, T/C [5]: 81.5% | viability, T/C [6]: 77.8% | viability, T/C [7]: 93.8% | viability, T/C [8]: 92.4% | viability, T/C [9]: 77.7% | viability, T/C [10]: 84.6% | viability, T/C [11]: 90.7% | viability, T/C [12]: 70.6% | viability, T/C [13]: 80.8% | viability, T/C [14]: 95.4% | viability, T/C [15]: 94.5% | viability, T/C [16]: 85.7% | viability, T/C [17]: 89.2% | viability, T/C [18]: 71.6% | viability, T/C [19]: 89.3% | viability, T/C [20]: 85.7% | viability, T/C [21]: 90.9% | viability, T/C [22]: 93.5% | viability, T/C [23]: 81% | viability, T/C [24]: 64.1% | viability, T/C [25]: 76.5% | viability, T/C [26]: 84% | viability, T/C [27]: 88.9% | viability, T/C [28]: 82.8% | viability, T/C [29]: 81.8% | viability, T/C [30]: 81% | viability, T/C [31]: 85.3% | viability, T/C [32]: 73.2% | viability, T/C [33]: 86.8% | viability, T/C [34]: 91.4% | viability, T/C [35]: 78.3% | viability, T/C [36]: 67.8%

C#Cc1c(F)ccc2cc(O)cc(-c3ncc4c(N5CC6CCC(C5)N6)nc(OCC56CCCN5CC(F)C6)nc4c3F)c12 (stereo not drawn) + COC1C(OC(N)=O)C(O)C(Oc2ccc3c(O)c(NC(=O)c4ccc(O)c(CC=C(C)C)c4)c(=O)oc3c2C)OC1(C)C
IC50 (second compound 0.0316 µM): > 10 µM | IC50 (second compound 0.1 µM): > 10 µM | IC50 (second compound 0.316 µM): > 10 µM | IC50 (second compound 1 µM): > 10 µM | IC50 (second compound 3.16 µM): > 10 µM | IC50 (second compound 10 µM): > 10 µM | viability, T/C [1]: 101% | viability, T/C [2]: 116% | viability, T/C [3]: 76.9% | viability, T/C [4]: 95.8% | viability, T/C [5]: 82.4% | viability, T/C [6]: 76% | viability, T/C [7]: 82% | viability, T/C [8]: 106% | viability, T/C [9]: 86.2% | viability, T/C [10]: 81.4% | viability, T/C [11]: 91.7% | viability, T/C [12]: 85.4% | viability, T/C [13]: 79.3% | viability, T/C [14]: 96.5% | viability, T/C [15]: 73.9% | viability, T/C [16]: 107% | viability, T/C [17]: 109% | viability, T/C [18]: 74.2% | viability, T/C [19]: 87.9% | viability, T/C [20]: 98.7% | viability, T/C [21]: 89.3% | viability, T/C [22]: 111% | viability, T/C [23]: 98.1% | viability, T/C [24]: 91.3% | viability, T/C [25]: 83.7% | viability, T/C [26]: 105% | viability, T/C [27]: 91.4% | viability, T/C [28]: 107% | viability, T/C [29]: 86.6% | viability, T/C [30]: 84% | viability, T/C [31]: 88.2% | viability, T/C [32]: 84.8% | viability, T/C [33]: 98.5% | viability, T/C [34]: 100% | viability, T/C [35]: 93.2% | viability, T/C [36]: 71.1%

COc1cc(C2c3cc4c(cc3C(OC3OC5COC(C)OC5C(O)C3O)C3COC(=O)C23)OCO4)cc(OC)c1O (stereo not drawn) + Nc1ccc(C#CCN(C(=O)Cc2ncc(C(F)(F)F)cc2C(F)(F)F)c2ccc(F)cc2)nn1
IC50 (second compound 0.0316 µM): > 10 µM | IC50 (second compound 0.1 µM): > 10 µM | IC50 (second compound 0.316 µM): > 10 µM | IC50 (second compound 1 µM): > 10 µM | IC50 (second compound 3.16 µM): 7.6 µM | IC50 (second compound 10 µM): 6.29 µM | viability, T/C [1]: 82.4% | viability, T/C [2]: 78.3% | viability, T/C [3]: 94% | viability, T/C [4]: 89.7% | viability, T/C [5]: 58.3% | viability, T/C [6]: 49.5% | viability, T/C [7]: 97.1% | viability, T/C [8]: 77.8% | viability, T/C [9]: 92% | viability, T/C [10]: 94.3% | viability, T/C [11]: 73.4% | viability, T/C [12]: 51.4% | viability, T/C [13]: 91.8% | viability, T/C [14]: 104% | viability, T/C [15]: 99.1% | viability, T/C [16]: 78.9% | viability, T/C [17]: 70.1% | viability, T/C [18]: 49.5% | viability, T/C [19]: 96.1% | viability, T/C [20]: 83.6% | viability, T/C [21]: 80.5% | viability, T/C [22]: 71.6% | viability, T/C [23]: 64.3% | viability, T/C [24]: 53.5% | viability, T/C [25]: 88.3% | viability, T/C [26]: 77% | viability, T/C [27]: 89.9% | viability, T/C [28]: 75.2% | viability, T/C [29]: 68.6% | viability, T/C [30]: 44.3% | viability, T/C [31]: 81.8% | viability, T/C [32]: 96.5% | viability, T/C [33]: 78.5% | viability, T/C [34]: 75.4% | viability, T/C [35]: 61.7% | viability, T/C [36]: 42.3%

COc1cccc(OCCCN)c1-c1cc(Nc2cnc(C#N)cn2)n[nH]1 + Nc1ccc(C#CCN(C(=O)Cc2ncc(C(F)(F)F)cc2C(F)(F)F)c2ccc(F)cc2)nn1
IC50 (second compound 0.0316 µM): 0.0578 µM | IC50 (second compound 0.1 µM): 0.0851 µM | IC50 (second compound 0.316 µM): 0.0919 µM | IC50 (second compound 1 µM): 0.0971 µM | IC50 (second compound 3.16 µM): 0.0256 µM | IC50 (second compound 10 µM): 0.0542 µM | viability, T/C (second compound 0.0316 µM, first compound 0.00316 µM): 92% | viability, T/C (second compound 0.0316 µM, first compound 0.01 µM): 78.5% | viability, T/C [1]: 53.1% | viability, T/C [2]: 47.3% | viability, T/C [3]: 40% | viability, T/C [4]: 35.5% | viability, T/C (second compound 0.1 µM, first compound 0.00316 µM): 91.9% | viability, T/C (second compound 0.1 µM, first compound 0.01 µM): 71.2% | viability, T/C [7]: 53% | viability, T/C [8]: 53.9% | viability, T/C [9]: 45.1% | viability, T/C [10]: 32.1% | viability, T/C (second compound 0.316 µM, first compound 0.00316 µM): 92.9% | viability, T/C (second compound 0.316 µM, first compound 0.01 µM): 72.5% | viability, T/C [13]: 59.6% | viability, T/C [14]: 50% | viability, T/C [15]: 42.2% | viability, T/C [16]: 35.1% | viability, T/C (second compound 1 µM, first compound 0.00316 µM): 89.8% | viability, T/C (second compound 1 µM, first compound 0.01 µM): 72.6% | viability, T/C [19]: 59.6% | viability, T/C [20]: 49.2% | viability, T/C [21]: 43.8% | viability, T/C [22]: 29.3% | viability, T/C (second compound 3.16 µM, first compound 0.00316 µM): 87.2% | viability, T/C (second compound 3.16 µM, first compound 0.01 µM): 74.6% | viability, T/C [25]: 44.3% | viability, T/C [26]: 41.2% | viability, T/C [27]: 38.6% | viability, T/C [28]: 38.8% | viability, T/C (second compound 10 µM, first compound 0.00316 µM): 84.8% | viability, T/C (second compound 10 µM, first compound 0.01 µM): 66.8% | viability, T/C [31]: 51.9% | viability, T/C [32]: 45.8% | viability, T/C [33]: 42.8% | viability, T/C [34]: 30.4%
